Test results: ChEMBL document CHEMBL1143675, “Triterpenoids from Schisandra rubriflora” (J Nat Prod, 2007)
≈ marks a conversion by molar mass, not a printed value.

Assays:
[1] = system: Human immunodeficiency virus 1; assay: Antiviral activity against HIV1 3B in C8166 cells; assay type: functional, organism-based; conditions: Human immunodeficiency virus 1, 3B
[2] = Cytotoxicity against C8166 cells after 72 hrs by MTT method; assay type: cell-based; conditions: human

CCOC(=O)C[C@H]1OC(C)(C)C2=C1C[C@]13CC[C@]4(C)C(=O)[C@@H](C)[C@@H]5[C@H]6OC(=O)[C@@H](C)[C@H]6O[C@@](O1)(C(=O)C3=CC2=O)[C@@H]54 [RUBRIFLORIN C]
EC50 [1]: 81.3 µg/mL (≈ 143 µM)
CC50 at 72 h [2]: > 200 µg/mL

Cc1cn([C@H]2C[C@H](N=[N+]=[N-])[C@@H](CO)O2)c(=O)[nH]c1=O [ZIDOVUDINE]
EC50 [1]: 0.0043 µg/mL (≈ 0.0161 µM)
CC50 at 72 h [2]: > 200 µg/mL

COC(=O)C[C@H]1OC(C)(C)[C@@H]2C[C@H]3O[C@@]12C[C@]12CC[C@]4(C)C(=O)[C@@H](C)[C@@H]5[C@H]6OC(=O)[C@@H](C)[C@H]6O[C@@](O1)(C(=O)[C@H]32)[C@@H]54 [RUBRIFLORIN A]
EC50 [1]: 10 µg/mL (≈ 17.9 µM)
CC50 at 72 h [2]: 89.1 µg/mL (≈ 159 µM)

COC(=O)C[C@H]1OC(C)(C)C2=C1C[C@]13CC[C@]4(C)C(=O)[C@@H](C)[C@@H]5[C@H]6OC(=O)[C@@H](C)[C@H]6O[C@@](O1)(C(=O)C3=CC2=O)[C@@H]54 [RUBRIFLORIN B]
EC50 [1]: 16.2 µg/mL (≈ 29.2 µM)
CC50 at 72 h [2]: 100 µg/mL (≈ 181 µM)
